Data on two substances can be found in patent US20240181081A1, “Compositions and Methods for Treatment of Myotonic Dystrophy Type 1 with CRISPR/SACAS9” (Vertex Pharmaceuticals Incorporated, priority 2021, published 2024).

For data set [1], the system named is computationally predicted off-target sites.
The test system of data set [2] is 3′ UTR of the human DMPK gene. The data set can be described thus: SINGLE-cut screening: indel editing by Sanger sequencing and ICE analysis in primary DM1 patient myoblasts. The data set is classed as cell-based. Set-up: unit not given here. As to conditions: ICE analysis, vehicle-treated DM1 myoblasts, SaCas9 RNP nucleofection, 72 hrs post nucleofection.
Data set [3] deals with CUG RNA foci in primary DM1 patient myoblasts. In words: SINGLE-cut screening: FISH staining of RNA foci in primary DM1 patient myoblasts. The class given is cell-based, human. Conditions: single sgRNA RNP, 72 hrs post nucleofection; for % of CUG foci free nuclei (DNA-PKi): 3 μM DNA-PKi Compound 6 for 48 hrs; for % of CUG foci free nuclei (Vehicle): DMSO 48 hrs.

On to “SaD2: SaCas9 sgRNA downstream of DMPK CTG repeat; protospacer TCGGCCAGGCTGAGGCCCTGAC (chemistry not given here)”, for which the “off-target sites found among predicted sites” value in data set [1] is on record as “one off-target site”. Also, in data set [2], the “Indel score_Mean” value came out at 41.25. Also, in data set [3], the “% of CUG foci free nuclei (DNA-PKi)” value was 9.58% and the “% of CUG foci free nuclei (Vehicle)” value is on record as 8.50%.

Turning to “SaD5: SaCas9 sgRNA downstream of DMPK CTG repeat; protospacer GGGTTTGGCAAAAGCAAATTTC (chemistry not given here)”, the “off-target sites found among predicted sites” value in data set [1] is on record as “Another off-target site”. In data set [2], the “Indel score_Mean” value is given as 62.25. In data set [3], the “% of CUG foci free nuclei (DNA-PKi)” value turned out to be 9.74% and the “% of CUG foci free nuclei (Vehicle)” value was 6.87%.
